According to ChEMBL document CHEMBL3608201, “Synthesis and biological evaluation of levofloxacin core-based derivatives with potent antibacterial activity against resistant Gram-positive pathogens” (Bioorg Med Chem Lett, 2015):
Values after ≈ are worked out from the molar mass of the structure shown.

Legend:
Streptococcus pneumoniae [1] = assay: Antimicrobial activity against penicillin-resistant Streptococcus pneumoniae clinical isolates by standard broth microdilution method; format: functional
Staphylococcus aureus [2] = assay: Potency index, ratio of MIC for moxifloxacin to MIC for test compound against Staphylococcus aureus ATCC 25923 by standard broth microdilution method; format: functional
Escherichia coli [3] = assay: Antimicrobial activity against Escherichia coli ATCC 25922 by standard broth microdilution method; format: functional
[4] = tested on: Staphylococcus epidermidis; assay: Antimicrobial activity against Staphylococcus epidermidis ATCC 12228 by standard broth microdilution method; format: functional
[5] = tested on: Staphylococcus epidermidis; assay: Antimicrobial activity against methicillin-resistant Staphylococcus epidermidis clinical isolates by standard broth microdilution method; format: functional
Staphylococcus aureus [6] = assay: Antimicrobial activity against methicillin-resistant Staphylococcus aureus clinical isolates by standard broth microdilution method; format: functional
Staphylococcus aureus [7] = assay: Antimicrobial activity against Staphylococcus aureus ATCC 25923 by standard broth microdilution method; format: functional
[8] = Aqueous solubility of the compound in water; format: physicochemical
Staphylococcus aureus [9] = assay: Potency index, ratio of MIC for ciprofloxacin to MIC for test compound against Staphylococcus aureus ATCC 25923 by standard broth microdilution method; format: functional
Escherichia coli [10] = assay: Antimicrobial activity against ciprofloxacin-resistant Escherichia coli clinical isolates by standard broth microdilution method; format: functional
Streptococcus pneumoniae [11] = assay: Antimicrobial activity against Streptococcus pneumoniae ATCC 49619 by standard broth microdilution method; format: functional
Streptococcus pyogenes [12] = assay: Antimicrobial activity against Streptococcus pyogenes ATCC 19615 by standard broth microdilution method; format: functional
Pseudomonas aeruginosa = assay: Antimicrobial activity against Pseudomonas aeruginosa ATCC 27853 by standard broth microdilution method; format: functional
Staphylococcus aureus [13] = assay: Antimicrobial activity against levofloxacin-resistant Staphylococcus aureus clinical isolates by standard broth microdilution method; format: functional
[14] = Tmax in beagle dog at 18.8 mg/kg, iv administered as single dose; format: ADME, organism-based, Canis lupus familiaris; conditions: in vivo
Streptococcus pneumoniae [15] = assay: Potency index, ratio of MIC for levofloxacin to MIC for test compound against penicillin-resistant Streptococcus pneumoniae clinical isolates by standard broth microdilution method; format: functional
[16] = AUC (0 to infinity) in beagle dog at 18.8 mg/kg, iv administered as single dose; format: ADME, organism-based, Canis lupus familiaris; parameters: dose 18.8 mg/kg, time infinity, route intravenous; conditions: in vivo
Streptococcus pneumoniae [17] = assay: Potency index, ratio of MIC for penicillin to MIC for test compound against penicillin-resistant Streptococcus pneumoniae clinical isolates by standard broth microdilution method; format: functional
[18] = Elimination half life in beagle dog at 18.8 mg/kg, iv administered as single dose; format: ADME, organism-based, Canis lupus familiaris; conditions: in vivo, read-out: beta t1/2 (converted)
Staphylococcus aureus [19] = assay: Potency index, ratio of MIC for moxifloxacin to MIC for test compound against methicillin-resistant Staphylococcus aureus clinical isolates by standard broth microdilution method; format: functional
Streptococcus pyogenes [20] = assay: Potency index, ratio of MIC for levofloxacin to MIC for test compound against Streptococcus pyogenes ATCC 19615 by standard broth microdilution method; format: functional
[21] = Cmax in beagle dog at 18.8 mg/kg, iv administered as single dose; format: ADME, organism-based, Canis lupus familiaris; parameters: dose 18.8 mg/kg, route intravenous; conditions: in vivo
[22] = Toxicity in ICR mouse administered as single intravenous dose; format: organism-based; conditions: in vivo
Streptococcus pyogenes [23] = assay: Potency index, ratio of MIC for penicillin to MIC for test compound against Streptococcus pyogenes ATCC 19615 by standard broth microdilution method; format: functional
[24] = Plasma clearance in beagle dog at 18.8 mg/kg, iv administered as single dose; format: ADME, organism-based, Canis lupus familiaris
Streptococcus pyogenes [25] = assay: Potency index, ratio of MIC for ciprofloxacin to MIC for test compound against Streptococcus pyogenes ATCC 19615 by standard broth microdilution method; format: functional
Streptococcus pneumoniae [26] = assay: Potency index, ratio of MIC for ciprofloxacin to MIC for test compound against penicillin-resistant Streptococcus pneumoniae clinical isolates by standard broth microdilution method; format: functional
[27] = Volume of distribution in beagle dog at 18.8 mg/kg, iv administered as single dose; format: ADME, organism-based, Canis lupus familiaris; conditions: in vivo
Staphylococcus aureus [28] = assay: Potency index, ratio of MIC for levofloxacin to MIC for test compound against methicillin-resistant Staphylococcus aureus clinical isolates by standard broth microdilution method; format: functional

| SMILES | MIC (Streptococcus pneumoniae [1]) [µg/mL] | MIC (Escherichia coli [3]) [µg/mL] | MIC [4] [µg/mL] | MIC [5] [µg/mL] | MIC (Staphylococcus aureus [6]) [µg/mL] | MIC (Staphylococcus aureus [7]) [µg/mL] | MIC (Escherichia coli [10]) [µg/mL] | MIC (Streptococcus pneumoniae [11]) [µg/mL] | MIC (Streptococcus pyogenes [12]) [µg/mL] | MIC (Pseudomonas aeruginosa) [µg/mL] | MIC (Staphylococcus aureus [13]) [µg/mL] | further results |
| --- | --- | --- | --- | --- | --- | --- | --- | --- | --- | --- | --- | --- |
| C[C@H]1COc2c(N3CCC(O)CC3)c(F)cc3c(=O)c(C(=O)O)cn1c23 | 0.031 (≈ 0.0856 µM) | 0.125 (≈ 0.345 µM) | 0.031 (≈ 0.0856 µM) | 0.5 (≈ 1.38 µM) | 1 (≈ 2.76 µM) | 0.031 (≈ 0.0856 µM) | 0.25 (≈ 0.69 µM) | 0.125 (≈ 0.345 µM) | 0.0625 (≈ 0.172 µM) | 2 (≈ 5.52 µM) | 0.5 (≈ 1.38 µM) | Ratio (Staphylococcus aureus [2]): 2; solubility [8]: 650 µg/mL (≈ 1790 µM); Ratio (Staphylococcus aureus [9]): 16 |
| C[C@H]1COc2c(N3CCC(O)CC3)c(F)cc3c(=O)c(C(=O)O)cn1c23.N=C(N)NCCC[C@H](N)C(=O)O.O | ≤ 0.016 | 0.125 | 0.031 | 1 | 1 | 0.031 | 0.25 | 0.125 | ≤ 0.016 | 2 | 0.25 | Tmax [14]: 4.8 min; Ratio (Streptococcus pneumoniae [15]): 32; AUC(0-inf) [16]: 27000 ng·h/mL; Ratio (Streptococcus pneumoniae [17]): 64; half-life [18]: 3.25 h; solubility [8]: 5330 µg/mL; Ratio (Staphylococcus aureus [19]): 4; Ratio (Streptococcus pyogenes [20]): 32; Cmax [21]: 15700 ng/mL; LD50 [22]: 1400 mg/kg; Ratio (Streptococcus pyogenes [23]): 64; clearance [24]: 11.6 mL/min/kg; Ratio (Streptococcus pyogenes [25]): 32; Ratio (Streptococcus pneumoniae [26]): 32; Vd [27]: 3.27 L/kg |
| C[C@H]1COc2c(N3CCC(O)CC3)c(F)cc3c(=O)c(C(=O)[O-])cn1c23.[Na+] | 0.125 | 0.25 | 0.0625 | 2 | 4 | 0.0625 | 0.5 | 0.5 | 0.125 | 2 | 2 | – |
| C[C@H]1COc2c(N3CCC(O)CC3)c(F)cc3c(=O)c(C(=O)[O-])cn1c23.[K+] | 0.25 | 0.5 | 0.0625 | 2 | 8 | 0.0625 | 1 | 0.5 | 0.25 | 2 | 4 | – |
| C[C@H]1COc2c(N3CC[C@@H](O)C3)c(F)cc3c(=O)c(C(=O)O)cn1c23 | 0.5 (≈ 1.44 µM) | 0.125 (≈ 0.359 µM) | 0.0625 (≈ 0.179 µM) | 2 (≈ 5.74 µM) | 4 (≈ 11.5 µM) | 0.0625 (≈ 0.179 µM) | 0.5 (≈ 1.44 µM) | 0.25 (≈ 0.718 µM) | 0.25 (≈ 0.718 µM) | 8 (≈ 23 µM) | 2 (≈ 5.74 µM) | – |
| C[C@H]1COc2c(N3CC[C@H](O)C3)c(F)cc3c(=O)c(C(=O)O)cn1c23 | 2 (≈ 5.74 µM) | ≤ 0.016 | 0.031 (≈ 0.089 µM) | 1 (≈ 2.87 µM) | 1 (≈ 2.87 µM) | 0.031 (≈ 0.089 µM) | 0.0625 (≈ 0.179 µM) | 2 (≈ 5.74 µM) | 2 (≈ 5.74 µM) | 1 (≈ 2.87 µM) | 0.25 (≈ 0.718 µM) | Ratio (Staphylococcus aureus [19]): 4; Ratio (Staphylococcus aureus [28]): 32 |
| C[C@H]1COc2c(N3CC[C@H](O)C3)c(F)cc3c(=O)c(C(=O)O)cn1c23.O | ≤ 0.016 | 0.031 | 0.125 | 1 | 2 | 0.031 | 0.0625 | 0.125 | ≤ 0.016 | 1 | 0.25 | solubility [8]: 370 µg/mL |
| C[C@H]1COc2c(N3CC[C@H](O)C3)c(F)cc3c(=O)c(C(=O)[O-])cn1c23.[Na+] | 4 | 0.0625 | 0.125 | 2 | 4 | 0.0625 | 0.25 | 4 | 4 | 2 | 2 | – |
| C[C@H]1COc2c(N3CC[C@H](O)C3)c(F)cc3c(=O)c(C(=O)[O-])cn1c23.[K+] | 4 | 0.125 | 0.5 | 4 | 4 | 0.0625 | 0.5 | 8 | 4 | 4 | 2 | – |
| C[C@H]1COc2c(N3CC(O)C3)c(F)cc3c(=O)c(C(=O)O)cn1c23 | 0.5 (≈ 1.5 µM) | 0.125 (≈ 0.374 µM) | 0.0625 (≈ 0.187 µM) | 2 (≈ 5.98 µM) | 8 (≈ 23.9 µM) | 0.0625 (≈ 0.187 µM) | 0.5 (≈ 1.5 µM) | 0.25 (≈ 0.748 µM) | 0.125 (≈ 0.374 µM) | 4 (≈ 12 µM) | 1 (≈ 2.99 µM) | – |
| O=C(O)c1cn2c3c(c(N4CCC(O)CC4)c(F)cc3c1=O)OC[C@@H]2CF | 0.031 (≈ 0.0815 µM) | 1 (≈ 2.63 µM) | 0.0625 (≈ 0.164 µM) | 1 (≈ 2.63 µM) | 2 (≈ 5.26 µM) | 0.0625 (≈ 0.164 µM) | 2 (≈ 5.26 µM) | 0.125 (≈ 0.329 µM) | 0.031 (≈ 0.0815 µM) | 2 (≈ 5.26 µM) | 0.5 (≈ 1.31 µM) | – |
| O=C(O)c1cn2c3c(c(N4CC[C@@H](O)C4)c(F)cc3c1=O)OC[C@@H]2CF | 0.25 (≈ 0.682 µM) | 0.125 (≈ 0.341 µM) | 0.0625 (≈ 0.171 µM) | 2 (≈ 5.46 µM) | 4 (≈ 10.9 µM) | 0.25 (≈ 0.682 µM) | 1 (≈ 2.73 µM) | 0.5 (≈ 1.36 µM) | 0.0625 (≈ 0.171 µM) | 2 (≈ 5.46 µM) | 2 (≈ 5.46 µM) | – |
| O=C(O)c1cn2c3c(c(N4CC[C@H](O)C4)c(F)cc3c1=O)OC[C@@H]2CF | 0.031 (≈ 0.0846 µM) | 0.25 (≈ 0.682 µM) | 0.031 (≈ 0.0846 µM) | 0.5 (≈ 1.36 µM) | 1 (≈ 2.73 µM) | 0.031 (≈ 0.0846 µM) | 0.5 (≈ 1.36 µM) | 0.125 (≈ 0.341 µM) | ≤ 0.016 | 1 (≈ 2.73 µM) | 0.5 (≈ 1.36 µM) | solubility [8]: 440 µg/mL (≈ 1200 µM) |
| O=C(O)c1cn2c3c(c(N4CC(O)C4)c(F)cc3c1=O)OC[C@@H]2CF | – | 0.25 (≈ 0.71 µM) | 0.0625 (≈ 0.177 µM) | – | – | 0.125 (≈ 0.355 µM) | – | 0.25 (≈ 0.71 µM) | 0.0625 (≈ 0.177 µM) | 4 (≈ 11.4 µM) | – | – |
| O=C(O)c1cn(C2CC2)c2cc(N3CCNCC3)c(F)cc2c1=O [CIPROFLOXACIN] | – | ≤ 0.016 | 0.0625 (≈ 0.189 µM) | – | – | – | – | 2 (≈ 6.04 µM) | 0.5 (≈ 1.51 µM) | – | – | – |
| C[C@H]1COc2c(N3CCN(C)CC3)c(F)cc3c(=O)c(C(=O)O)cn1c23.C[C@H]1COc2c(N3CCN(C)CC3)c(F)cc3c(=O)c(C(=O)O)cn1c23.O [LEVOFLOXACIN] | – | ≤ 0.016 | 0.125 | 8 | 32 | 0.25 | 8 | – | 0.5 | – | 4 | LD50 [22]: 358 mg/kg |
| COc1c(N2C[C@@H]3CCCN[C@@H]3C2)c(F)cc2c(=O)c(C(=O)O)cn(C3CC3)c12 [MOXIFLOXACIN] | – | 0.031 (≈ 0.0772 µM) | ≤ 0.016 | – | – | – | – | 0.25 (≈ 0.623 µM) | 0.25 (≈ 0.623 µM) | 4 (≈ 9.96 µM) | – | – |
| CC1(C)S[C@@H]2[C@H](NC(=O)Cc3ccccc3)C(=O)N2[C@H]1C(=O)O [PENICILLIN G] | 1 (≈ 2.99 µM) | – | – | – | – | – | – | 1 (≈ 2.99 µM) | 1 (≈ 2.99 µM) | – | – | – |
| CN[C@H](CC(C)C)C(=O)N[C@H]1C(=O)N[C@@H](CC(N)=O)C(=O)N[C@H]2C(=O)N[C@H]3C(=O)N[C@H](C(=O)N[C@H](C(=O)O)c4cc(O)cc(O)c4-c4cc3ccc4O)[C@H](O)c3ccc(c(Cl)c3)Oc3cc2cc(c3O[C@@H]2O[C@H](CO)[C@@H](O)[C@H](O)[C@H]2O[C@H]2C[C@](C)(N)[C@H](O)[C@H](C)O2)Oc2ccc(cc2Cl)[C@H]1O [VANCOMYCIN] | 0.125 (≈ 0.0863 µM) | – | – | – | – | – | – | 0.25 (≈ 0.173 µM) | 0.0625 (≈ 0.0431 µM) | – | – | – |
